According to patent publication US20240382483A1, “HETEROCYCLIC EGFR INHIBITORS FOR USE IN THE TREATMENT OF CANCER” (Blueprint Medicines Corporation, priority 2021, published 2024):

Key:
[1] = target: T1, intracellular phosphorylation of EGFR in NCI-H1975 cell line that harbors the EGFR L858R T790M mutations (Homo sapiens, UniProt P00533, L858R/T790M); test: NCI-H1975 pEGFR AlphaLISA assay; assay type: cell-based; details: NCI-H1975 cells (EGFR L858R T790M), p-EGFR (Tyr1068), 4-5 hours incubation; read-out: Ext pEGFR H1975 GMean IC50 (nM) Protocol: @Pharmaron AlphaLISA (Num)
T1 construct: NCI-H1975 cell line that harbors the EGFR L858R T790M mutations (ATCC, CRL-5908); host or cells: NCI-H1975
Procedure: On the next day, the test compounds and DMSO control were added into H1975 cell plate followed by incubation at 37C/5% CO2 for 4-5 hours. […] Then 5 μL of a donor bead mix was added to each well followed by overnight incubation at room temperature in dark. On the next day, the plate was read at a compatible plate reader to obtain pEGFR signal. Percent of pEGFR inhibition was plotted against log concentration of compounds to generate IC50 values.

EGFR (L858R T790M C797S) = target: T2, EGFR (L858R T790M C797S) (Homo sapiens, UniProt P00533, C797S/L858R/T790M); test: Biochemical EGFR inhibition assay (Caliper mobility shift), EGFR LRTMCS; details: LRTMCS (PH) IC50 (nM) @ 1 mM ATP (Num), EGFR LRTMCS mutant
T2 construct: purchased SignalChem E10-122VG
Procedure: Reactions proceeded until between 10% to 20% total peptides were phosphorylated at room temperature (25° C.) and were terminated with 35 mM 2,2′,2″,2′″-(ethane-1,2-diyldinitrilo)tetraacetic acid (EDTA). Product was detected using the Caliper mobility shift detection method where the phosphorylated peptide (product) and substrate were electrophoretically separated and measured. Percent activity was plotted against log concentration of compound and points to generate an apparent IC50.

T2 sequence (P00533 25-1210 T790M/C797S/L858R): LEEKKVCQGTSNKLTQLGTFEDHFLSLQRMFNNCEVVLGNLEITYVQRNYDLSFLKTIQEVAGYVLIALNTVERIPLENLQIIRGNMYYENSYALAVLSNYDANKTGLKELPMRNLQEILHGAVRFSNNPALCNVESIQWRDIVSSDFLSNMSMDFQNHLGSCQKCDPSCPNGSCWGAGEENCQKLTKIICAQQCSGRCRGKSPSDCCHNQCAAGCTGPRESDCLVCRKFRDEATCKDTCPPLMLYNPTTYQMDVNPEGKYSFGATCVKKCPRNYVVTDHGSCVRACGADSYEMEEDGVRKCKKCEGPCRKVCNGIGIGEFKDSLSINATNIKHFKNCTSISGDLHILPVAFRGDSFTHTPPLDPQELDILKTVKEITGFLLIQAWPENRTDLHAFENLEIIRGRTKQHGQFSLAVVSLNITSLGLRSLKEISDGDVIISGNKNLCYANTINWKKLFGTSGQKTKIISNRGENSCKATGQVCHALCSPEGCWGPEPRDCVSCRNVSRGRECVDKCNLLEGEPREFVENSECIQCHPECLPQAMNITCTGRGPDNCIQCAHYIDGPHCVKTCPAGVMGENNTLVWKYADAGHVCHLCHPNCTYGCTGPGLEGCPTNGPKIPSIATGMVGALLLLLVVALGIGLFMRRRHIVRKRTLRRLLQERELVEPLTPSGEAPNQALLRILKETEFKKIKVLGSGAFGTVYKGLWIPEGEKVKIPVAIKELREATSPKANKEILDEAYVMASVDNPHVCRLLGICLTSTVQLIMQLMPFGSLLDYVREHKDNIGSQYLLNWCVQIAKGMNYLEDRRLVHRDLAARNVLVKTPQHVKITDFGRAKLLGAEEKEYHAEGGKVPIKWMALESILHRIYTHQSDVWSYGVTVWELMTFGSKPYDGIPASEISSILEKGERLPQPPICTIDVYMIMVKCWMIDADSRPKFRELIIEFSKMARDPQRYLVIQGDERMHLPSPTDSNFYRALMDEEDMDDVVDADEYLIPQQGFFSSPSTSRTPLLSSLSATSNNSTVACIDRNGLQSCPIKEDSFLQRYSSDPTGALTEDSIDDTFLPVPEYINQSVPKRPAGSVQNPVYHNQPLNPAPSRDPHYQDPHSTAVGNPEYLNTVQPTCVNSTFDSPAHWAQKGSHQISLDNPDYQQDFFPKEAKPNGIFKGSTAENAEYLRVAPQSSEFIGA
T1 sequence (P00533 25-1210 T790M/L858R): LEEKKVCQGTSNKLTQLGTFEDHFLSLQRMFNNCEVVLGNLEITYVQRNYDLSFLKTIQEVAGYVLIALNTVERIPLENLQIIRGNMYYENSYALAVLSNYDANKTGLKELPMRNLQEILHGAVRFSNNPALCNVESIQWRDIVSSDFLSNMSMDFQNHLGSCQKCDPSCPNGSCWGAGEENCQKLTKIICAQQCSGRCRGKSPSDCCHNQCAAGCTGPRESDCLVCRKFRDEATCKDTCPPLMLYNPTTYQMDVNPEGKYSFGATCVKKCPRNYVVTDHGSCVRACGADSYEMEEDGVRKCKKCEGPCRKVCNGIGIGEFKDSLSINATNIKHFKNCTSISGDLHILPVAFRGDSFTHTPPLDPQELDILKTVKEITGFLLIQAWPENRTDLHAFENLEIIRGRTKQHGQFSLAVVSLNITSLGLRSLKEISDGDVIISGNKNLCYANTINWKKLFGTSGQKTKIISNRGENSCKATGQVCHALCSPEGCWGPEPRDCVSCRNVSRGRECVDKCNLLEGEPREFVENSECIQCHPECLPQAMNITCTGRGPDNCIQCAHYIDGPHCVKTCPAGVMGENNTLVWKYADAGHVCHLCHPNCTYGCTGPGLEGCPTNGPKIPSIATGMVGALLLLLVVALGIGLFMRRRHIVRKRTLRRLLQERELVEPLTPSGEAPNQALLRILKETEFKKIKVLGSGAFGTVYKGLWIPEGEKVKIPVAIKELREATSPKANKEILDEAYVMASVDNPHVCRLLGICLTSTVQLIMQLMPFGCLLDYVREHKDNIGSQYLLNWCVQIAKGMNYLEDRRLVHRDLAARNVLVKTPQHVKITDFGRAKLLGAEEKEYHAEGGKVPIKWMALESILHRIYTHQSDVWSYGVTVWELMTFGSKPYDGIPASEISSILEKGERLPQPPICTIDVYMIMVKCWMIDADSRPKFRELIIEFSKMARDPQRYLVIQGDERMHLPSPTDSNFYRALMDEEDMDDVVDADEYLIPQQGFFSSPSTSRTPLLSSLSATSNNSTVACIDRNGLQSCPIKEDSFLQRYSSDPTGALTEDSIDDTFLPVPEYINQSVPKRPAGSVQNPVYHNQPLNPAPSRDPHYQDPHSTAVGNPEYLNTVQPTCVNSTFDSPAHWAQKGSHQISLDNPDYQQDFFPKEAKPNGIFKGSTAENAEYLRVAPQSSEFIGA

Compound | IC50 [1] | IC50 (EGFR (L858R T790M C797S))
CO[C@H]1CCN(c2nccc(Nc3cc4c(C(C)C)cnc(N5CC[C@H]5CN)c4cn3)n2)C[C@H]1F [Example 165, 8-((S)-2-(aminomethyl)azetidin-1-yl)-N-(2-((3R,4S)-3-fluoro-4-methoxypiperidin-1-yl)pyrimidin-4-yl)-5-isopropyl-2,7-naphthyridin-3-amine] | 20 to 30 nM | < 15 nM
CC(C)c1cnc(N2CC[C@H]2CF)c2cnc(Nc3ccnc(N4CC[C@@H](O)[C@@](C)(F)C4)n3)cc12 [Example 76, (3S,4R)-3-fluoro-1-(4-((8-((S)-2-(fluoromethyl)azetidin-1-yl)-5-isopropyl-2,7-naphthyridin-3-yl)amino)pyrimidin-2-yl)-3-methylpiperidin-4-ol] | 10 to 20 nM | < 15 nM
CC(C)c1cnc(N2C[C@H](O)[C@H]2C)c2cnc(Nc3ccnc(N4CC[C@H](O)[C@H](F)C4)n3)cc12 [Example 143, (3R,4S)-3-fluoro-1-(4-((8-((2R,3S)-3-hydroxy-2-methylazetidin-1-yl)-5-isopropyl-2,7-naphthyridin-3-yl)amino)pyrimidin-2-yl)piperidin-4-ol] | 10 to 20 nM | < 15 nM
CC(C)c1ncc(N2CC(F)C2)c2cnc(Nc3ccnc(N4CC[C@@H](O)[C@@](C)(F)C4)n3)cc12 [Example 49, (3S,4R)-3-fluoro-1-(4-((8-(3-fluoroazetidin-1-yl)-5-isopropyl-2,6-naphthyridin-3-yl)amino)pyrimidin-2-yl)-3-methylpiperidin-4-ol] | 30 to 50 nM | 15 to 20 nM
CO[C@@H]1CCN(c2nccc(Nc3cc4c(C(C)C)ccc(N5CC6(CCS6(=O)=O)C5)c4cn3)n2)C[C@@H]1O (single isomer, unassigned) [Example 125, 6-(3-((2-((3S,4R)-3-hydroxy-4-methoxypiperidin-1-yl)pyrimidin-4-yl)amino)-5-isopropylisoquinolin-8-yl)-1-thia-6-azaspiro[3.3]heptane 1,1-dioxide or 6-(3-((2-((3R,4S)-3-hydroxy-4-methoxypiperidin-1-yl)pyrimidin-4-yl)amino)-5-isopropylisoquinolin-8-yl)-1-thia-6-azaspiro[3.3]heptane 1,1-dioxide] | 30 to 50 nM | < 15 nM
CC(C)c1ncc(-c2cn(C)nn2)c2cnc(Nc3ccnc(N4CC[C@@H](O)[C@@](C)(F)C4)n3)cc12 [Example 12, (3S,4R)-3-fluoro-1-(4-((5-isopropyl-8-(1-methyl-1H-1,2,3-triazol-4-yl)-2,6-naphthyridin-3-yl)amino)pyrimidin-2-yl)-3-methylpiperidin-4-ol] | 10 to 20 nM | < 15 nM
COC1CN(c2ccc([C@@H](C)CO)c3cc(Nc4ccnc(N5CC[C@@H](O)[C@@](C)(F)C5)n4)ncc23)C1 (single isomer, unassigned) [Example 180, (3S,4R)-3-fluoro-1-(4-((5-((R)-1-hydroxypropan-2-yl)-8-(3-methoxyazetidin-1-yl)isoquinolin-3-yl)amino)pyrimidin-2-yl)-3-methylpiperidin-4-ol or (3S,4R)-3-fluoro-1-(4-((5-((S)-1-hydroxypropan-2-yl)-8-(3-methoxyazetidin-1-yl)isoquinolin-3-yl)amino)pyrimidin-2-yl)-3-methylpiperidin-4-ol] | > 50 nM | 30 to 100 nM
CC(C)c1cnc(N2C[C@H](n3ccnn3)[C@H]2C)c2cnc(Nc3ccnc(N4CCC(C)(O)CC4)n3)cc12 [Example 130, 1-(4-((5-isopropyl-8-((2R,3S)-2-methyl-3-(1H-1,2,3-triazol-1-yl)azetidin-1-yl)-2,7-naphthyridin-3-yl)amino)pyrimidin-2-yl)-4-methylpiperidin-4-ol] | 20 to 30 nM | 15 to 20 nM
CC(C)c1ccc(N2CC[C@H]2CO)c2cnc(Nc3ccnc(N4CC[C@@H](O)[C@@](C)(F)C4)n3)cc12 [Example 105, (3S,4R)-3-fluoro-1-(4-((8-((S)-2-(hydroxymethyl)azetidin-1-yl)-5-isopropylisoquinolin-3-yl)amino)pyrimidin-2-yl)-3-methylpiperidin-4-ol] | 20 to 30 nM | < 15 nM
CC(C)c1cnc(N2CC[C@H](O)[C@H]2C)c2cnc(Nc3ccnc(N4CC[C@@H](O)[C@@](C)(F)C4)n3)cc12 [Example 81, (3S,4R)-3-fluoro-1-(4-((8-((2R,3S)-3-hydroxy-2-methylpyrrolidin-1-yl)-5-isopropyl-2,7-naphthyridin-3-yl)amino)pyrimidin-2-yl)-3-methylpiperidin-4-ol] | > 50 nM | 15 to 20 nM
CC(C)c1cnc(N2CC[C@]3(C2)CC3(F)F)c2cnc(Nc3ccnc(N4CC[C@@H](O)[C@@](C)(F)C4)n3)cc12 (single isomer, unassigned) [Example 214, (3S,4R)-1-(4-((8-((R)-1,1-difluoro-5-azaspiro[2.4]heptan-5-yl)-5-isopropyl-2,7-naphthyridin-3-yl)amino)pyrimidin-2-yl)-3-fluoro-3-methylpiperidin-4-ol or (3S,4R)-1-(4-((8-((S)-1,1-difluoro-5-azaspiro[2.4]heptan-5-yl)-5-isopropyl-2,7-naphthyridin-3-yl)amino)pyrimidin-2-yl)-3-fluoro-3-methylpiperidin-4-ol] | 30 to 50 nM | 30 to 100 nM
CC(C)c1cnc(N2CC3(CCO3)C2)c2cnc(Nc3ccnc(N4CC[C@@H](O)[C@@](C)(F)C4)n3)cc12 [Example 54, (3S,4R)-3-fluoro-1-(4-((5-isopropyl-8-(1-oxa-6-azaspiro[3.3]heptan-6-yl)-2,7-naphthyridin-3-yl)amino)pyrimidin-2-yl)-3-methylpiperidin-4-ol] | 20 to 30 nM | 15 to 20 nM
CC(C)c1cnc(N2CC(F)(C(=O)N(C)C)C2)c2cnc(Nc3ccnc(N4CC[C@@H](O)[C@@](C)(F)C4)n3)cc12 [Example 92, 3-fluoro-1-(6-((2-((3S,4R)-3-fluoro-4-hydroxy-3-methylpiperidin-1-yl)pyrimidin-4-yl)amino)-4-isopropyl-2,7-naphthyridin-1-yl)-N,N-dimethylazetidine-3-carboxamide] | 30 to 50 nM | 15 to 20 nM
CC(C)c1cnc(N2C[C@@H](F)[C@@H]2C)c2cnc(Nc3ccnc(N4CC[C@@H](O)[C@@](C)(F)C4)n3)cc12 (single isomer, unassigned) [Example 34, (3S,4R)-3-fluoro-1-(4-((8-((2S,3R)-3-fluoro-2-methylazetidin-1-yl)-5-isopropyl-2,7-naphthyridin-3-yl)amino)pyrimidin-2-yl)-3-methylpiperidin-4-ol or (3S,4R)-3-fluoro-1-(4-((8-((2R,3S)-3-fluoro-2-methylazetidin-1-yl)-5-isopropyl-2,7-naphthyridin-3-yl)amino)pyrimidin-2-yl)-3-methylpiperidin-4-ol] | > 50 nM | < 15 nM
CC(C)c1ccc(N2CC(C)(c3nnco3)C2)c2cnc(Nc3ccnc(N4CC[C@@H](O)[C@@](C)(F)C4)n3)cc12 [Example 113, (3S,4R)-3-fluoro-1-(4-((5-isopropyl-8-(3-methyl-3-(1,3,4-oxadiazol-2-yl)azetidin-1-yl)isoquinolin-3-yl)amino)pyrimidin-2-yl)-3-methylpiperidin-4-ol] | 10 to 20 nM | 20 to 30 nM
CNC(=O)C1CN(c2ncc(C(C)C)c3cc(Nc4ccnc(N5CC[C@@H](O)[C@@](C)(F)C5)n4)ncc23)C1 [Example 80, 1-(6-((2-((3S,4R)-3-fluoro-4-hydroxy-3-methylpiperidin-1-yl)pyrimidin-4-yl)amino)-4-isopropyl-2,7-naphthyridin-1-yl)-N-methylazetidine-3-carboxamide] | 30 to 50 nM | < 15 nM
COCC1(F)CN(c2ncc(C(C)C)c3cc(Nc4ccnc(N5CC[C@@H](O)[C@@](C)(F)C5)n4)ncc23)C1 [Example 68, (3S,4R)-3-fluoro-1-(4-((8-(3-fluoro-3-(methoxymethyl)azetidin-1-yl)-5-isopropyl-2,7-naphthyridin-3-yl)amino)pyrimidin-2-yl)-3-methylpiperidin-4-ol] | 30 to 50 nM | 20 to 30 nM
CC(C)c1cnc(N2CC(F)(CO)C2)c2cnc(Nc3ccnc(N4CC[C@@H](O)[C@@](C)(F)C4)n3)cc12 [Example 67, (3S,4R)-3-fluoro-1-(4-((8-(3-fluoro-3-(hydroxymethyl)azetidin-1-yl)-5-isopropyl-2,7-naphthyridin-3-yl)amino)pyrimidin-2-yl)-3-methylpiperidin-4-ol] | > 50 nM | 15 to 20 nM
CC(C)c1ccc(N2CCC2)c2cnc(Nc3ccnc(N4CC[C@@H](O)[C@@](C)(F)C4)n3)cc12 [Example 110, (3S,4R)-1-(4-((8-(azetidin-1-yl)-5-isopropylisoquinolin-3-yl)amino)pyrimidin-2-yl)-3-fluoro-3-methylpiperidin-4-ol] | > 50 nM | 30 to 100 nM
CC(C)c1cnc(N2CC(n3ccnn3)C2)c2cnc(Nc3ccnc(N4CC[C@@H](O)[C@@](C)(F)C4)n3)cc12 [Example 89, (3S,4R)-1-(4-((8-(3-(1H-1,2,3-triazol-1-yl)azetidin-1-yl)-5-isopropyl-2,7-naphthyridin-3-yl)amino)pyrimidin-2-yl)-3-fluoro-3-methylpiperidin-4-ol] | < 10 nM | < 15 nM
